Source: US6156700A, “3-(1,2-Benzisothiazol- and isoxazol-5-yl)-2,4(1H,3H)-pyrimidinedione or thione and 3-(1,2-benzisothiazol- and isoxazol-5-yl)-4(3H)-pyrimidinone or thione herbicidal agents” (American Cyanmid Company, priority 1998, dated 2000)
Several values for one entry are separate records, joined by “and”; a condition that tells them apart may be missing. Equal entries are not always repeated.

Experiments:
[1] = test system: ECHCG; experiment: Preemergence herbicidal evaluation; format: in vivo; set-up: scale not given here
[2] = test system: GLXMAW; experiment: Preemergence herbicidal evaluation; format: in vivo; set-up: scale not given here; settings: 0.1250 kg/ha
[3] = test system: IPOHE; experiment: Preemergence herbicidal evaluation; format: in vivo; settings: 0.1250 kg/ha
[4] = test system: ORYSAT; experiment: Preemergence herbicidal evaluation; format: in vivo, Oryza sativa; set-up: scale not given here
[5] = test system: ABUTH; experiment: Postemergence herbicidal evaluation; format: in vivo
[6] = test system: IPOHE; experiment: Postemergence herbicidal evaluation; format: in vivo; settings: 0.0625-0.0640 kg/ha
[7] = test system: IPOSS; experiment: Postemergence herbicidal evaluation; format: in vivo
[8] = test system: GLXMAW; experiment: Postemergence herbicidal evaluation; format: in vivo
[9] = test system: GLXMA; experiment: Postemergence herbicidal evaluation; format: in vivo
[10] = test system: TRZAWR; experiment: Postemergence herbicidal evaluation; format: in vivo

Structure (SMILES): Cc1nsc2ccc(-n3c(=O)cc(C(F)(F)F)n(C)c3=O)cc12 [Compound 6, 1-Methyl-3-(3-methyl-1,2-benzisothiazol-5-yl)-6-(trifluoromethyl)-2,4(1H,3H)-pyrimidinedione]
- herbicidal effect rating ([1]; 0.0313-0.0320 kg/ha): 5.6 and 8.0 and 4.5
- herbicidal effect rating ([1]; 0.0620-0.0630 kg/ha): 9.0 and 5.5
- herbicidal effect rating ([1]; 0.1250 kg/ha): 6.0
- herbicidal effect rating ([1]; 0.2500 kg/ha): 9.0
- herbicidal effect rating ([1]; 0.5000 kg/ha): 9.0
- herbicidal effect rating [2]: 0.0
- herbicidal effect rating [3]: 3.0
- herbicidal effect rating ([4]; 0.0156-0.0160 kg/ha): 2.8 and 4.0
- herbicidal effect rating ([4]; 0.0313-0.0320 kg/ha): 4.4 and 7.0
- herbicidal effect rating ([4]; 0.0620-0.0630 kg/ha): 7.0
- herbicidal effect rating ([4]; 0.1250 kg/ha): 8.0
- herbicidal effect rating ([4]; 0.2500 kg/ha): 8.0
- herbicidal effect rating ([4]; 0.5000 kg/ha): 9.0
- herbicidal effect rating ([5]; 0.0157-0.0160 kg/ha): 5.7 and 5.0 and 8.0
- herbicidal effect rating ([5]; 0.0313-0.0320 kg/ha): 9.0
- herbicidal effect rating ([5]; 0.0625-0.0640 kg/ha): 9.0
- herbicidal effect rating ([5]; 0.1250 kg/ha): 9.0
- herbicidal effect rating ([5]; 0.2500 kg/ha): 9.0
- herbicidal effect rating ([5]; 0.5000 kg/ha): 9.0
- herbicidal effect rating [6]: 9.0 and 5.0
- herbicidal effect rating ([7]; 0.0157-0.0160 kg/ha): 7.5 and 7.0
- herbicidal effect rating ([7]; 0.0313-0.0320 kg/ha): 9.0 and 8.0
- herbicidal effect rating ([7]; 0.0625-0.0640 kg/ha): 9.0
- herbicidal effect rating ([7]; 0.1250 kg/ha): 9.0
- herbicidal effect rating ([7]; 0.2500 kg/ha): 9.0
- herbicidal effect rating ([7]; 0.5000 kg/ha): 9.0
- herbicidal effect rating ([8]; 0.0157-0.0160 kg/ha): 5.5 and 3.0
- herbicidal effect rating ([8]; 0.0313-0.0320 kg/ha): 5.5 and 3.8 and 7.0
- herbicidal effect rating ([8]; 0.0625-0.0640 kg/ha): 6.0 and 4.8 and 7.0
- herbicidal effect rating ([8]; 0.1250 kg/ha): 7.0
- herbicidal effect rating ([8]; 0.2500 kg/ha): 7.0
- herbicidal effect rating ([9]; 0.0157-0.0160 kg/ha): 2.5 and 4.0
- herbicidal effect rating ([9]; 0.0313-0.0320 kg/ha): 5.0 and 4.0
- herbicidal effect rating ([9]; 0.0625-0.0640 kg/ha): 4.0
- herbicidal effect rating ([9]; 0.1250 kg/ha): 6.0
- herbicidal effect rating ([9]; 0.2500 kg/ha): 6.0
- herbicidal effect rating ([9]; 0.5000 kg/ha): 7.0
- herbicidal effect rating ([10]; 0.0625-0.0640 kg/ha): 3.0 and 1.5 and 2.0
- herbicidal effect rating ([10]; 0.1250 kg/ha): 2.5
- herbicidal effect rating ([10]; 0.2500 kg/ha): 5.0
- herbicidal effect rating ([10]; 0.5000 kg/ha): 6.0

Structure (SMILES): Cn1c(C(F)(F)F)cc(=O)n(-c2ccc3snc(-c4ccccc4)c3c2)c1=O [Compound 4, 1-Methyl-3-(3-phenyl-1,2-benzisothiazol-5-yl)-6-(trifluoromethyl)-2,4(1H,3H)-pyrimidinedione]
- herbicidal effect rating ([1]; 0.0313-0.0320 kg/ha): 9.0
- herbicidal effect rating ([1]; 0.0620-0.0630 kg/ha): 9.0
- herbicidal effect rating ([1]; 0.1250 kg/ha): 9.0
- herbicidal effect rating ([1]; 0.2500 kg/ha): 9.0
- herbicidal effect rating ([1]; 0.5000 kg/ha): 9.0
- herbicidal effect rating ([4]; 0.0313-0.0320 kg/ha): 7.0
- herbicidal effect rating ([4]; 0.0620-0.0630 kg/ha): 7.0
- herbicidal effect rating ([4]; 0.1250 kg/ha): 7.0
- herbicidal effect rating ([4]; 0.2500 kg/ha): 7.0
- herbicidal effect rating ([4]; 0.5000 kg/ha): 7.0
- herbicidal effect rating ([5]; 0.0157-0.0160 kg/ha): 9.0
- herbicidal effect rating ([5]; 0.0313-0.0320 kg/ha): 9.0
- herbicidal effect rating ([5]; 0.0625-0.0640 kg/ha): 9.0
- herbicidal effect rating ([5]; 0.1250 kg/ha): 9.0
- herbicidal effect rating ([5]; 0.2500 kg/ha): 9.0
- herbicidal effect rating ([5]; 0.5000 kg/ha): 9.0
- herbicidal effect rating ([7]; 0.0313-0.0320 kg/ha): 7.0
- herbicidal effect rating ([7]; 0.0625-0.0640 kg/ha): 9.0
- herbicidal effect rating ([7]; 0.1250 kg/ha): 9.0
- herbicidal effect rating ([7]; 0.2500 kg/ha): 9.0
- herbicidal effect rating ([7]; 0.5000 kg/ha): 9.0
- herbicidal effect rating ([9]; 0.0157-0.0160 kg/ha): 6.0
- herbicidal effect rating ([9]; 0.0313-0.0320 kg/ha): 5.0
- herbicidal effect rating ([9]; 0.0625-0.0640 kg/ha): 4.0
- herbicidal effect rating ([9]; 0.1250 kg/ha): 7.0
- herbicidal effect rating ([9]; 0.2500 kg/ha): 9.0
- herbicidal effect rating ([9]; 0.5000 kg/ha): 9.0
- herbicidal effect rating ([10]; 0.0157-0.0160 kg/ha): 2.0
- herbicidal effect rating ([10]; 0.0313-0.0320 kg/ha): 2.0
- herbicidal effect rating ([10]; 0.0625-0.0640 kg/ha): 3.0
- herbicidal effect rating ([10]; 0.1250 kg/ha): 3.0
- herbicidal effect rating ([10]; 0.2500 kg/ha): 3.0
- herbicidal effect rating ([10]; 0.5000 kg/ha): 4.0
